Experimental data from patent US20220264883A1, “IMIDAZOTHIAZOLE COMPOUNDS AND METHODS FOR TREATING PLANT NEMATODE INFECTIONS” (The Governing Council of the University of Toronto, priority 2019, published 2022).

How the values were obtained:
Format in all cases: in vivo
M. chitwoodi J2 larvae = experiment: Meloidogyne chitwoodi in vitro assays (J2 movement); details: 45 μM, 2 days, relative to DMSO control
Method: M. incognita (Kofoid & White) Chitwood Race 1 (originally isolated in Maryland) was used for all experiments, and was maintained on pepper (Capsicum annuum L.) cv. PA-136 in a greenhouse as previously described^64. Infective J2 juveniles were collected as described in ref.65. The microwell dose-response experiments were carried out similarly to previously described protocols^64, 66. In brief, 100 J2s, in 10 μL of deionized water, were added to the wells of 96-well polystyrene plates, after which 190 μL of deionized water containing dissolved chemical, or DMSO alone, was added to each well. The chemicals were tested at 45 μM, and the final concentration of DMSO in each well was 0.5% (v/v). The wells were covered with a plastic adhesive strip, and the lids of the plates were sealed with parafilm. The plates were incubated at 25° C. The mobile fraction of worms was quantified by counting the number of mobile and immobile worms after 2 days of incubation, and then dividing the number of mobile worms by the total number of worms in the well. Three technical replicates were performed for each treatment, and an average value for the mobile fraction of worms was calculated across the three replicates. The percent effectiveness at inhibiting nematode movement was calculated by dividing the average value for the chemical treatment by the average value for the DMSO control, then subtracting this value from 1, and then multiplying by 100.
M. chitwoodi race 1 (the strain commonly found in the pacific northwest of the United States) was used for all experiments, and was maintained on tomato plants (Solanum lycopersicum ‘Rutgers’) as previously described^73. The M. chitwoodi in vitro assays were performed identically to the M. incognita in vitro assays (see above).

[1] = system: Haemonchus contortus eggs; experiment: Haemonchus contortus egg hatching assay; details: for Hatch Rate: 60 μM, 48 hours, ± standard deviation; for reduction of egg hatching relative to the untreated mock control: 60 micromolar, 48-hour treatment
Method: Fresh sheep faeces containing eggs of the MHco3(ISE) strain of H. contortus was supplied by Dr. Doug Colwell and Dawn Gray (Lethbridge Research Station, Agriculture and Agri-Food Canada). Experimental infections used to generate this material were carried out using established methods^72, and were approved by the Lethbridge AAFC Animal Care committee and conducted under animal use license ACC1407. Sheep faeces containing H. contortus eggs were stored at 20° C. for no longer than 48 h before harvesting eggs for use. Eggs were isolated from faeces using a standard saturated salt flotation method^61 immediately before each egg hatch assay. Approximately 100 eggs suspended in 100 μl of water were added to each well of a 96-well plate, and the exemplary compounds of the application were tested at 60 μM, 0.6% DMSO (v/v). Egg hatch rates were determined 48 hours after the initial set-up of the assay by the addition of iodine tincture to stop development. Example 13: Arabidopsis thaliana greening experiments

[2] = system: M. incognita infective juveniles; experiment: Meloidogyne incognita dose-response experiments (infective J2 juveniles, FIG. 2); details: for nematicidal activity on M. incognita infective juveniles: 5, 15, 45 micromolar, third day after water rinse
Method: M. incognita (Kofoid & White) Chitwood Race 1 (originally isolated in Maryland) was used for all experiments, and were maintained on pepper (Capsicum annuum L.) cv. PA-136 in a greenhouse as previously described^64. Infective J2 juveniles were collected as described in ref. 65. The microwell dose-response experiments were carried out similarly to previously described protocols^64, 66. In brief, 100 J2 s, in 10 μL of deionized water, were added to the wells of 96-well polystyrene plates, after which 190 μL of deionized water containing dissolved chemical, or DMSO alone, was added to each well. The final concentration of DMSO in each well was 0.5% (v/v), except for the water only control which contained no DMSO and no added chemicals. The final concentrations of the chemicals for each dose-response experiment were 5, 15, and 45 μM. The wells were covered with a plastic adhesive strip, and the lids of the plates were sealed with parafilm. The plates were incubated at 25° C. The fraction of active worms was quantified by counting the number of mobile and immobile worms after 1 and 2 days of incubation, and then dividing the number of mobile worms by the total number of worms in the well. After 2 days of incubation, the chemicals were removed and replaced with deionized water (i.e. the water rinse) and the fraction of active worms was quantified 1 day later. A failure of the worms to recover after rinsing with water is consistent with them having been killed by the chemical treatment. Four technical replicates were performed for each treatment.

Q: Which “% effectiveness at reducing M. chitwoodi movement” value (M. chitwoodi J2 larvae) does the source give for `Cc1csc2nc(-c3ccccc3)cn12` [Compound Ie] here?
A: 24.3%

Q: `Clc1ccc(-c2cn3ccsc3n2)cc1` [Ia] was tested. Which “Hatch Rate” value [1] did it give?
A: 1.0 ± 1.7%

Q: What about the “reduction of egg hatching relative to the untreated mock control” value [1] of the same molecule?
A: 99%

Q: And the “nematicidal activity on M. incognita infective juveniles” value [2]?
A: demonstrated nematicidal activity at one or more concentrations

Q: What about the “inhibitory effects on worm activity compared with tioxazafen” value ([2]; each time point, every concentration tested) of the same molecule?
A: outperformed the commercial nematicide tioxazafen

Q: And the nematode lethality ([2]; lowest concentration assayed (5 micromolar))?
A: 100%

Q: Which “Hatch Rate” value [1] does the source give for `Fc1ccc(-c2cn3ccsc3n2)cc1` [Ib] here?
A: 0.0 ± 0.0%

Q: What about the “reduction of egg hatching relative to the untreated mock control” value [1] of the same molecule?
A: completely inhibited egg hatching

Q: And the “nematicidal activity on M. incognita infective juveniles” value [2]?
A: demonstrated nematicidal activity at one or more concentrations

Q: And the “% effectiveness at reducing M. chitwoodi movement” value (M. chitwoodi J2 larvae)?
A: 37.5%
